What was measured:
Format in all cases: functional
[1] = Antioxidant activity assessed as Trolox equivalents of photolysis-induced singlet oxygen scavenging activity using 4-HO-TEMP spin trap by ESR spectroscopic method
[2] = Antioxidant activity assessed as relative scavenging rate constant for photolysis-induced methyl radical scavenging activity by measuring Kaox/Kst ratio using DMPO spin trap by ESR spectroscopic method
[3] = Antioxidant activity assessed as Trolox equivalents of photolysis-induced alkoxyl scavenging activity using DMPO spin trap by ESR spectroscopic method
[4] = Antioxidant activity assessed as Trolox equivalents of photolysis-induced hydroxyl radical scavenging activity using DMPO spin trap by ESR spectroscopic method
[5] = Antioxidant activity assessed as relative scavenging rate constant for photolysis-induced hydroxyl radical scavenging activity by measuring Kaox/Kst ratio using DMPO spin trap by ESR spectroscopic method
[6] = Antioxidant activity assessed as relative scavenging rate constant for photolysis-induced alkoxyl scavenging activity by measuring Kaox/Kst ratio using DMPO spin trap by ESR spectroscopic method
[7] = Antioxidant activity assessed as relative scavenging rate constant for photolysis-induced super-oxide anion scavenging activity by measuring Kaox/Kst ratio using CYPMPO spin trap by ESR spectroscopic method
[8] = Antioxidant activity assessed as relative scavenging rate constant for photolysis-induced peroxyl scavenging activity by measuring Kaox/Kst ratio using CYPMPO spin trap by ESR spectroscopic method
[9] = Antioxidant activity assessed as Trolox equivalents of photolysis-induced superoxide anion scavenging activity using CYPMPO spin trap by ESR spectroscopic method
[10] = Antioxidant activity assessed as relative scavenging rate constant for photolysis-induced singlet oxygen scavenging activity by measuring Kaox/Kst ratio using 4-HO-TEMP spin trap by ESR spectroscopic method
[11] = Antioxidant activity assessed as Trolox equivalents of photolysis-induced methyl radical scavenging activity using DMPO spin trap by ESR spectroscopic method
[12] = Antioxidant activity assessed as Trolox equivalents of photolysis-induced peroxyl scavenging activity using CYPMPO spin trap by ESR spectroscopic method
[13] = Antioxidant activity assessed as rate constant for photolysis-induced methyl radical scavenging activity using DMPO spin trap by ESR spectroscopic method
[14] = Antioxidant activity assessed as rate constant for singlet oxygen scavenging activity in ethanol-water (1:1 v/v) mixture using phosphorescence-based single-photon-counting method
[15] = Antioxidant activity assessed as rate constant for singlet oxygen scavenging activity in methanol solution by EPR spectroscopic method
[16] = Antioxidant activity assessed as rate constant for singlet oxygen scavenging activity in aqueous solution by EPR spectroscopic method

With `COc1cc(/C=C/c2ccc(O)cc2)cc(OC)c1` the Activity [1] was 2 equiv, the Ratio [2] was -0 and the Activity [3] was 0.11 equiv. For the same compound, the Activity [4] was 0.47 equiv, the Ratio [5] was 14.9 and the Ratio [6] was 13. The Ratio [7] was 35.6, the Ratio [8] was 24.8 and the Activity [9] was 0.42 equiv. The Ratio [10] was 4610, the Activity [11] was -0 equiv and the Activity [12] was 0.88 equiv.
Compound `Oc1cc(O)cc(/C=C/c2ccc(O)c(O)c2)c1` has an Activity [1] of 7 equiv, a Ratio [2] of 5.65 and an Activity [3] of 0.36 equiv. It also gave an Activity [4] of 2.78 equiv, a Ratio [5] of 88.8 and a Ratio [6] of 41.2. The Ratio [7] was 156, the K [13] was 7.9 ×10⁷ /M/s and the Ratio [8] was 218. It also gave an Activity [9] of 1.86 equiv, a Ratio [10] of 16600 and an Activity [11] of 0.11 equiv. It also gave an Activity [12] of 7.7 equiv.
`COc1ccc(/C=C/c2cc(O)cc(O)c2)cc1O` gave an Activity [1] of 3.7 equiv, a Ratio [2] of 2.21 and an Activity [3] of 0.1 equiv. It also gave an Activity [4] of 0.71 equiv, a Ratio [5] of 22.6 and a Ratio [6] of 11.9. It also gave a Ratio [7] of 70.5, a K [13] of 3.1 ×10⁷ /M/s and a Ratio [8] of 21.1. It also gave an Activity [9] of 0.84 equiv, a Ratio [10] of 8780 and an Activity [11] of 0.04 equiv. It also gave an Activity [12] of 0.71 equiv.
In the case of `Cc1c(C)c2c(c(C)c1O)CCC(C)(C(=O)O)O2` (centres undefined), the Ratio [2] is reported as 50, the K [14] is reported as 6.22 ×10⁷ /M/s and the Ratio [5] is reported as 31.9. For the same compound, the Ratio [6] was 115, the Ratio [7] was 83.9 and the K [13] was 7 ×10⁸ /M/s. It also gave a Ratio [8] of 28.3 and a Ratio [10] of 2360.
Work on `Oc1ccc(/C=C/c2cc(O)cc(O)c2)cc1` yielded an Activity [1] of 3 equiv, a Ratio [2] of -0 and an Activity [3] of 0.2 equiv. It also gave an Activity [4] of 0.5 equiv, a Ratio [5] of 15.8 and a K [15] of 2.55 ×10⁷ /M/s. The K [16] was 3.92 ×10⁹ /M/s, the Ratio [6] was 23.3 and the Ratio [7] was 33.4. For the same compound, the Ratio [8] was 19.6, the Activity [9] was 0.4 equiv and the Ratio [10] was 7080. The Activity [11] was -0 equiv and the Activity [12] was 0.69 equiv.
`COc1cc(/C=C/c2ccc(OC)c(OC)c2)cc(OC)c1` gave an Activity [1] of 0.11 equiv, a Ratio [2] of -0 and an Activity [3] of 0.21 equiv. For the same compound, the Activity [4] was 0.8 equiv, the Ratio [5] was 25.6 and the Ratio [6] was 24.4. For the same compound, the Ratio [7] was -0, the Ratio [8] was 8.52 and the Activity [9] was -0 equiv. It also gave a Ratio [10] of 268, an Activity [11] of -0 equiv and an Activity [12] of 0.3 equiv.
`Oc1cc(O)cc(/C=C/c2ccc(O)cc2O)c1` showed an Activity [1] of 3.4 equiv, a Ratio [2] of 3.98 and an Activity [3] of 0.17 equiv. It also gave an Activity [4] of 0.68 equiv, a Ratio [5] of 21.8 and a Ratio [6] of 19. For the same compound, the Ratio [7] was 37.4, the Ratio [8] was 18.9 and the Activity [9] was 0.45 equiv. For the same compound, the Ratio [10] was 7960, the Activity [11] was 0.08 equiv and the Activity [12] was 0.67 equiv.

— ChEMBL document CHEMBL4184155, “Resveratrol analogues like piceatannol are potent antioxidants as quantitatively demonstrated through the high scavenging ability against reactive oxygen species and methyl radical” (Bioorg Med Chem Lett, 2017)
